# Reference: patent publication US20100022559A1, “BISOXIMES AS FUNGICIDES” (BAYER CROPSCIENCE AG, priority 2006, published 2010)
# Test system: not listed separately
# Assay: logP determination by HPLC on a reversed-phase column (C 18), EEC Directive 79/831 Annex V.A8
# Assay type: physicochemical
# Settings: [a] acidic range, pH 2.3, 0.1% aqueous phosphoric acid and acetonitrile
# Experimental: The stated logP values were determined in accordance with EEC Directive 79/831 Annex V.A8 by HPLC (high performance liquid chromatography) on a reversed-phase column (C 18). Temperature: 43° C.
row,Compound,logP
1,Cc1cccc(C(=NOCCCON)C(C)C)n1 [XII-1],1.12^[a]
2,C/C(=N\OCC(C)(C)CON)c1cc(C(F)(F)F)cc(C)n1 [XII-16],2.69^[a]

# Same assay, conditions: [b] LC-MS, acidic range, pH 2.7, 0.1% aqueous formic acid and acetonitrile
row,Compound,logP
1,C/C(=N\OCC(C)(C)CON)c1cc(C(F)(F)F)cc(C)n1 [XII-16],2.69^[b]

# Same assay, conditions: [c] LC-MS, neutral range, pH 7.8, 0.001 molar aqueous ammonium bicarbonate solution and acetonitrile
row,Compound,logP
1,C/C(=N\OCC(C)(C)CON)c1cc(C(F)(F)F)cc(C)n1 [XII-16],3.92^[c]

# Same assay, conditions: method marked [a] in Table 1
row,Compound,logP
1,Cc1cccc(C(=NOCC(C)(C)CON=C(c2ccccc2)c2cccc(C)n2)c2ccccc2)n1 (mixture of isomers) [compound 660],4.09^[a]
2,CCOc1cc(C)nc(C(C)=NOCC(C)CON=C(C)c2cc(OCC)cc(C)n2)c1 (stereo not shown) [Compound 683],1.71^[a]
3,CC(=NOCC(C)CON=C(C)c1ccc(C)o1)c1ccc(C)o1 (mixture of isomers) [compound 585],4.70^[a]

# Same assay, conditions: method marked [b] in Table 1
row,Compound,logP
1,CC(=NOCC1(CON=C(C)c2cccc(C)n2)CC(C(C)(C)C)=NO1)c1cccc(C)n1 (stereo not shown) [Compound 600],3.85^[b]
2,"CCC(CON=C(C)c1nc(C)ccc1C)CON=C(C)c1nc(C)ccc1C (single isomer, unassigned) [compound 751]",3.19^[b]
3,CC(=NOCc1ccccc1CON=C(C)c1ccccn1)c1ccccn1 [Compound 725],3.76^[b]
4,"C=C(CON=C(C)c1cccc(C)n1)CON=C(c1cccc(C)n1)C1CC1 (single isomer, unassigned) [compound 537]",3.46^[b] (isomer B)
5,CCC(=NOCC1(CON=C(CC)c2cccc(C)n2)CC(C(C)(C)C)=NO1)c1cccc(C)n1 (stereo not shown) [compound 610],5.21^[b]
6,CC(=NOCC(C)(C)CON=C(C)c1sc(C)nc1C)c1cccc(C)n1 [compound 546],4.37^[b]
7,C(=NOCCON=Cc1ccccn1)c1ccccn1 [compound 665],1.68^[b]
8,COC(CON=C(C)c1cc(C)cc(C)n1)CON=C(C)c1cc(C)cc(C)n1 (stereo not shown) [Compound 552],1.56^[b]
9,"C=C(CON=Cc1cccc(C)n1)CON=Cc1cccc(C)n1 (single isomer, unassigned) [compound 664]",2.13^[b] (isomer A)
10,CC1=NOC(CON=C(C)c2cccc(C)n2)(CON=C(C)c2cccc(C)n2)C1 (stereo not shown) [compound 596],2.20^[b]
11,C=C(CON=C(Br)c1cccc(C)n1)CON=C(Br)c1cccc(C)n1 [compound 746],4.41^[b]
12,"CCCC(=NOCC(C)CON=C(C)c1cccc(C)n1)c1ncccc1C (single isomer, unassigned) [compound 549]",4.68^[b] (isomer B)

# Same assay, conditions: method marked [c] in Table 1
row,Compound,logP
1,"CCC(CON=C(C)c1nc(C)ccc1C)CON=C(C)c1nc(C)ccc1C (single isomer, unassigned) [compound 751]",5.54^[c]
2,COC(CON=C(C)c1cc(C)cc(C)n1)CON=C(C)c1cc(C)cc(C)n1 (stereo not shown) [Compound 552],4.91^[c]

# Same assay, conditions: method marker [a] (footnote not shown); isomer A / isomer B / isomer mixture as noted in the cell
row,Compound,logP
1,C=CCCC(=NOCC(C)CON=C(CCC=C)c1ncccc1C)c1ncccc1C (stereo not shown) [compound 130],5.06^[a]
2,Cc1cccc(C(CS(C)(=O)=O)=NOCCCON=C(CS(C)(=O)=O)c2cccc(C)n2)n1 [compound 170],2.75^[a]
3,"CCCC(=NOCCCON=C(CCC)c1ncccc1C)c1ncccc1C (single isomer, unassigned) [compound 98]",4.83^[a] (isomer B)
4,CCCc1cccc(C(C)=NOCCCON=C(C)c2cccc(CCC)n2)n1 [Compound 174],6.78^[a]
5,CC(=NOCC(C)CON=C(C)c1ncccc1C)c1ncccc1C (stereo not shown) [compound 128],3.12^[a]
6,C=C(CON=C(CCC)c1cccc(C)n1)CON=C(CCC)c1cccc(C)n1 (mixture of isomers) [Compound 240],6.27^[a]
7,CCC(=NOCCON=C(CC)c1cccc(C)n1)c1cccc(C)n1 (mixture of isomers) [compound 222],3.77^[a]
8,CC(=NOCCCON=C(C)c1nc(C)cs1)c1nc(C)cs1 [compound 87],4.22^[a]
9,Cc1cccc(C(CS(C)(=O)=O)=NOCC(C)CON=C(CS(C)(=O)=O)c2cccc(C)n2)n1 (stereo not shown) [compound 137],3.08^[a]
10,CCCC(=NOCC(C)CON=C(CCC)c1ncccc1C)c1ncccc1C (mixture of isomers) [compound 111],4.73^[a]
11,CCCC(=NOCC(C)CON=C(CCC)c1cccc(C)n1)c1cccc(C)n1 (stereo not shown) [Compound 112],6.61^[a]
12,"CCC(=NOCCCON=C(CC)c1ncccc1C)c1ncccc1C (single isomer, unassigned) [compound 95]",3.11^[a] (isomer A)

# Same assay, conditions: method marker [b]; isomer A / isomer B / isomer mixture as noted in the cell
row,Compound,logP
1,CON=C(CON=C(C)c1cccc(C)n1)CON=C(C)c1cccc(C)n1 [compound 113],3.26^[b]
2,C=C(CON=C(C)c1cccs1)CON=C(C)c1nccs1 [compound 78],4.31^[b]
3,"C=C(CON=C(C)c1cccc(C)n1)CON=C(CC(C)C)c1ncccc1C (single isomer, unassigned) [compound 155]",4.40^[b] (isomer A)
4,C=C(CON=C(C)c1ccc(C)cn1)CON=C(C)c1cccc(C)n1 [compound 209],3.33^b]
5,"C=C(CON=C(C)c1cccc(C)n1)CON=C(C)c1nc(C)cc(OC)n1 (single isomer, unassigned) [Compound 177]",3.08^[b] (isomer A)
6,C=C(CON=C(C)c1ccc(Br)nc1)CON=C(C)c1ccc(Br)nc1 [compound 151],4.56^[b]
7,CC(=NOCCON=C(C)c1cnc(-c2ccccc2)s1)c1cnc(-c2ccccc2)s1 [compound 48],6.51^[b]
8,Cc1nc(/C(N)=N/OCO/N=C(\N)c2nc(C)c3c(n2)CCCC3)nc2c1CCCC2 [compound 39],2.29^[b]
9,C=C(CON=C(C)c1cccc(C)n1)CON=C(C)c1cccc(OC)n1 [compound 207],4.82^[b]

# Same assay, conditions: value marked [a]
row,Compound,logP
1,"Cc1cccc(C(=NOCC(C)(C)CON=C(c2cccc(C)n2)C2CC2)C2CC2)n1 (single isomer, unassigned) [compound 282]",3.75^[a] (isomer A)
2,CC(=NOC(C)C(C)C(C)ON=C(C)c1cc(C)cc(C)n1)c1cc(C)cc(C)n1 (mixture of isomers) [Compound 790],3.60^[a]
3,Cc1cc(C)nc(C(Cl)=NOCC(C)CON=C(Cl)c2cc(C)cc(C)n2)c1 (stereo not shown) [compound 833],4.17^[a]
4,CC(=NOCC(C)(C)CON=C(C)c1ccc(C)c(C)n1)c1ccc(C)c(C)n1 [Compound 278],3.81^[a]
5,CCOC(=O)c1cccc(C(C)=NOCCCON=C(C)c2cccc(C(=O)OCC)n2)n1 [compound 257],4.06^[a]
6,CC=Cc1cc(C)nc(C(C)=NOCC(C)CON=C(C)c2cc(C=CC)cc(C)n2)c1 (stereo not shown) [compound 866],4.57^[a]
7,CC(=NOCC(C)(C)CON=C(C)c1cc(C2CC2)cc(C)n1)c1cc(C2CC2)cc(C)n1 [Compound 817],3.27^[a]

# Same assay, conditions: value marked [b]
row,Compound,logP
1,C=C(CON=C(C)c1cccc(C)n1)CON=C(CCC)c1cccc(C)n1 [compound 355],4.87^[b]
2,"CC(=NOCCCCON=C(C)c1sc(C)nc1C)c1cccc(C)n1 (single isomer, unassigned) [compound 374]",3.56^[b] (isomer B)
3,CC(=NOCCCCCCON=C(C)c1cccc(C)n1)c1cccnc1 [compound 396],3.15^b]
4,COc1ccc(C(C)=NOCCCCON=C(C)c2cccc(C)n2)cc1OC [compound 380],3.85^[b]
5,CC(=NOC(C)C(C)C(C)ON=C(C)c1cc(C)cc(C)n1)c1cc(C)cc(C)n1 (mixture of isomers) [Compound 790],4.44^[b]
6,"CC(=NOCCCCCCON=C(C)c1nc(C)c(C)s1)c1cccc(C)n1 (single isomer, unassigned) [compound 389]",5.84^[b] (isomer A)
7,"CC(=NOCC1(CON=C(C)c2nc(C)ccc2C)CCCC1)c1nc(C)ccc1C (single isomer, unassigned) [Compound 763]",4.76^[b]
8,CC(=NOCCCCON=C(C)c1cccc(C)n1)c1ccc2c(c1)OCO2 [compound 378],4.35^[b]
9,CC(=NOCC(C)CON=C(C)c1nc(C)c(C)c(C)n1)c1nc(C)c(C)c(C)n1 (stereo not shown) [Compound 266],3.41^[b]
10,COc1cc(C)nc(C(C)=NOCCCCON=C(C)c2cccc(C)n2)c1 [compound 449],3.11^[b]
11,CC(=NOCC(C)CON=C(C)c1cccc(C)n1)c1ccnc(C)c1 (stereo not shown) [compound 432],1.80^[b]
12,CCCc1cccc(C(C)=NOCCCCON=C(C)c2cccc(C)n2)n1 [compound 450],5.48^[b]
13,CC(=NOCC1(CON=C(C)c2ccc(C)c(C)n2)CCC1)c1ccc(C)c(C)n1 [Compound 319],4.07^b]
14,CC(=NOCCCCON=C(C)c1cc2ccccc2o1)c1cccc(C)n1 [compound 381],4.74^[b]
15,CC(=NOCC(C)CON=C(C)c1ccccc1Cl)c1cccc(C)n1 (stereo not shown) [compound 436],5.08^[b]
16,COC(CON=C(C)c1ccc(C)c(C)n1)CON=C(C)c1ccc(C)c(C)n1 (stereo not shown) [Compound 321],1.95^[b]
17,C=C(CON=C(C)c1ccc2c(c1)OCO2)CON=C(C)c1cccc(C)n1 [compound 401],4.20^[b]
18,CC=Cc1cc(C)nc(C(C)=NOCC(C)CON=C(C)c2cc(C=CC)cc(C)n2)c1 (stereo not shown) [compound 866],4.57^[b]
19,"CC(=NOCC1(CON=C(C)c2nc(C)ccc2C)CCCC1)c1nc(C)ccc1C (single isomer, unassigned) [compound 762]",3.04^[b]
20,COc1ccc(C(C)=NOCC(C)CON=C(C)c2ccc(OC)c(C)n2)nc1C (stereo not shown) [Compound 825],5.21^[b]
21,CC(=NOCCCCON=C(C)c1cccc(C)n1)c1cnccn1 [compound 512],3.02^[b]
22,"C=C(CON=C(C)c1cccc(C)n1)CON=C(C)c1ncccc1C (single isomer, unassigned) [compound 478]",3.11^[b] (isomer B)
23,CC(=NOCCCCCCON=C(C)c1cccc(C)n1)c1cccc(Cl)c1 [compound 456],6.58^[b]

# Same assay, conditions: value marked [c]
row,Compound,logP
1,"CC(=NOCC1(CON=C(C)c2nc(C)ccc2C)CCCC1)c1nc(C)ccc1C (single isomer, unassigned) [Compound 763]",6.32^[c]
2,CC(=NOCC1(CON=C(C)c2ccc(C)c(C)n2)CCC1)c1ccc(C)c(C)n1 [Compound 319],7.05^[c]
3,COC(CON=C(C)c1ccc(C)c(C)n1)CON=C(C)c1ccc(C)c(C)n1 (stereo not shown) [Compound 321],5.06^[c]
4,"CC(=NOCC1(CON=C(C)c2nc(C)ccc2C)CCCC1)c1nc(C)ccc1C (single isomer, unassigned) [compound 762]",5.14^[c]
5,COc1ccc(C(C)=NOCC(C)CON=C(C)c2ccc(OC)c(C)n2)nc1C (stereo not shown) [Compound 825],5.58^[c]
6,CC(=NOCC(C)(C)CON=C(C)c1cc(C2CC2)cc(C)n1)c1cc(C2CC2)cc(C)n1 [Compound 817],7.14^[c]

# Test system: green peach aphid (Myzus persicae)
# Assay: Myzus test (spray treatment)
# Assay type: in vivo
# Settings: active compound concentration 500 ppm, after 5 days, chinese cabbage leaf discs
# Experimental: [table] To produce a suitable preparation of active compound, 1 part by weight of active compound is mixed with the stated amounts of solvents and emulsifier, and the concentrate is diluted with emulsifier-containing water to the desired concentration. Discs of chinese cabbage (Brassica pekinensis) which are infested by all stages of the green peach aphid (Myzus persicae) are sprayed with an active compound preparation of the desired concentration. After the desired period of time, the effect in % is determined. 100% means that all aphids have been killed; 0% means that none of the aphids have been killed.
row,Compound,efficacy [%]
1,CC(=NOCC1(CON=C(C)c2cccc(C)n2)CC(C(C)(C)C)=NO1)c1cccc(C)n1 (stereo not shown) [Compound 600],100
